Experimental data published in patent publication US20050042238A1, “Process for treating aqueous systems” (priority 2003, published 2005).

Legend:
mold = assay: Dosing of micro-mixed emulsion to paper pulp slurry tank, mold proofing of paper; details: 50 wt. % solution in benzyl alcohol micro-mixed with water, charged to 10,000 liter pulp slurry tank
Experimental: A 10,000 liter pulp slurry tank has a continuous throughput averaging 6,600 liters/minute. A 50 wt. % solution of 4,5-dichloro-2-octyl-3-isothiazolone in benzyl alcohol is fed to an array of slit shaped interdigital micro-mixers at a feed rate of 56 mL/minute, combined with water fed to the micro-mixer at a feed rate of 600 mL/minute. The water contains no surfactants. The resulting emulsion exiting the micro-mixer is directly charged to water in the pulp slurry tank, where it is effectively distributed and re-circulated throughout the tank water. […] Focusing micro-mixers also produce similar results as compared to the micro-mixers described above.

algae = assay: Dosing of micro-mixed emulsion to cooling tower water, control of algae; details: isothiazolone 3 ppm in cooling water of a cooling tower; surfactant-free emulsion from micro-mixer
Experimental: A 50 wt. % solution of 4,5-dichloro-2-octyl-3-isothiazolone in benzyl alcohol is fed to an array of slit shaped interdigital micro-mixers at a feed rate of 50 mL/minute, combined with water fed to the micro-mixer at a feed rate of 600 mL/minute. The water contains no surfactants. The resulting emulsion exiting the micro-mixer it is directly dosed to cooling water in a 50,000 gallon […] cooling tower, where is effectively distributed and re-circulated throughout the cooling water. After about 20 minutes, the isothiazolone concentration in the cooling water reaches a desired concentration of 3 ppm and the emulsion feed is stopped. […] Focusing micro-mixers also produce similar results as compared to the micro-mixers described above. Melted 2-octyl-3-isothiazolone as a neat liquid is fed to an array of slit shaped interdigital micro-mixers at a feed rate of 50 mL/minute, combined with water fed to the micro-mixer at a feed rate of 600 mL/minute. The water contains no surfactants and solvents. The resulting emulsion exiting the micro-mixer it is directly dosed to cooling water in a 50,000 gallon […] cooling tower, where is effectively distributed and re-circulated throughout the cooling water. After about 20 minutes, the isothiazolone concentration in the cooling water reaches a desired concentration of 3 ppm and the emulsion feed is stopped. […]

With CCCCCCCCn1sc(Cl)c(Cl)c1=O [4,5-dichloro-2-octyl-3-isothiazolone] the “mold proofing in paper prepared from treated pulp” value (mold) was “effective mold proofing” and the “control of algae in cooling water” value (algae) was “Effective control of algae”.

For CCCCCCCCn1sccc1=O [2-octyl-3-isothiazolone], the “control of algae in cooling water” value (algae) was “Effective control of algae”.
